Here are results for 22 molecules from ChEMBL document CHEMBL4190164 (Medchemcomm, 2016).

As usually defined, the Ki is a dissociation constant, usually derived from enzyme kinetics or from competition with a known ligand. Broadly, the IC50 is the concentration at which inhibition is half-maximal.

Test [1] concerns the target Epidermal growth factor receptor (Homo sapiens, UniProt P00533). The test can be described thus: Inhibition of recombinant human GST-tagged wild-type EGFR expressed in baculovirus infected Sf9 insect cells using poly (Glu,Tyr) 4:1 as substrate after 60 mins in presence of [gamma33P]ATP by scintillation counting method.
For test [2], the target named is Insulin-like growth factor 1 receptor (Homo sapiens, UniProt P08069). The test can be described thus: Inhibition of recombinant human GST-tagged IGF1R expressed in baculovirus infected Sf9 insect cells using poly (Glu,Tyr) 4:1 as substrate after 60 mins in presence of [gamma33P]ATP by scintillation counting method.
The subject of another test is BT-549. Briefly: Growth inhibition of human BT549 cells at 10 uM after 48 hrs by sulforhodamine B assay relative to control. The format is functional. The following applies: BT-549, 48 h, read-out: GI. Background: Sulforhodamine B stains cellular protein and so reports cell mass.
The test system of another test is Hs-578T. The test can be described thus: Growth inhibition of human Hs 578T cells at 10 uM after 48 hrs by sulforhodamine B assay relative to control. To be noted: read-out: GI. The format is functional.
For another test, the system named is HOP-62. The test can be described thus: Growth inhibition of human HOP62 cells at 10 uM after 48 hrs by sulforhodamine B assay relative to control. The following applies: HOP-62, 48 h, read-out: GI. Type of test: functional.
A further test has as its system NCI-H460. The test can be described thus: Growth inhibition of human NCI-H460 cells at 10 uM after 48 hrs by sulforhodamine B assay relative to control. To be noted: NCI-H460, 48 h, read-out: GI. The format is functional.

Sequence of Epidermal growth factor receptor (P00533 whole entry): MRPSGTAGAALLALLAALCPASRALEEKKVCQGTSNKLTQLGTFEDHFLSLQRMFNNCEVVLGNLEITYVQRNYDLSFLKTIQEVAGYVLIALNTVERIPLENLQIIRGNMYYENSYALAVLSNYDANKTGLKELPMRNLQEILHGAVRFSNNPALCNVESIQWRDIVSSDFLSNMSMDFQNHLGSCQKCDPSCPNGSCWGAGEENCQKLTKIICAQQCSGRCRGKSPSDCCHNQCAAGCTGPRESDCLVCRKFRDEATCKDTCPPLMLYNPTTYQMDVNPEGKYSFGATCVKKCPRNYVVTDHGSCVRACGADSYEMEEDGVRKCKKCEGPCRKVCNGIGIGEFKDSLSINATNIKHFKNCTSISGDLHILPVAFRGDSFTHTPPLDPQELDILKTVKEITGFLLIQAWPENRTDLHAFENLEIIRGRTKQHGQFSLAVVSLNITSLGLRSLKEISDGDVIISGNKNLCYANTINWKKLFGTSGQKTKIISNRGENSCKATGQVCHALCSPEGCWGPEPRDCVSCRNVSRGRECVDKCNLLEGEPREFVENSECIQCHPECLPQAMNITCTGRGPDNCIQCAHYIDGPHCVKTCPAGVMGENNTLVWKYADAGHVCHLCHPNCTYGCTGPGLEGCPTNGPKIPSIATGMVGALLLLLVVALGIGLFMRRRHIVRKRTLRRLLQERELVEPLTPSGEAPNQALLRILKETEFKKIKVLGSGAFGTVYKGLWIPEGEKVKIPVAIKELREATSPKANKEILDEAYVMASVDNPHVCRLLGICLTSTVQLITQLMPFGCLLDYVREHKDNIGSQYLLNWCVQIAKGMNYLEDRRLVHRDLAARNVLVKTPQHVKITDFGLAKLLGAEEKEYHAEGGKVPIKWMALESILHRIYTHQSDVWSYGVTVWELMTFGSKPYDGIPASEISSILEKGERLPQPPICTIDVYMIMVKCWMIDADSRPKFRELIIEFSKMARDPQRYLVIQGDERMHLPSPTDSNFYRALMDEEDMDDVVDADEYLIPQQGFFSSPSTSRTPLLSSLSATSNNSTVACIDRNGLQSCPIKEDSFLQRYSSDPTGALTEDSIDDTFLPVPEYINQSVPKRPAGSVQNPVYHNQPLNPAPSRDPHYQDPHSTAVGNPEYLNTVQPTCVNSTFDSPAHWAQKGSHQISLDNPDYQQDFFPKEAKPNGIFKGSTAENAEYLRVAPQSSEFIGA
Sequence of Insulin-like growth factor 1 receptor (P08069 31-736 limits assumed): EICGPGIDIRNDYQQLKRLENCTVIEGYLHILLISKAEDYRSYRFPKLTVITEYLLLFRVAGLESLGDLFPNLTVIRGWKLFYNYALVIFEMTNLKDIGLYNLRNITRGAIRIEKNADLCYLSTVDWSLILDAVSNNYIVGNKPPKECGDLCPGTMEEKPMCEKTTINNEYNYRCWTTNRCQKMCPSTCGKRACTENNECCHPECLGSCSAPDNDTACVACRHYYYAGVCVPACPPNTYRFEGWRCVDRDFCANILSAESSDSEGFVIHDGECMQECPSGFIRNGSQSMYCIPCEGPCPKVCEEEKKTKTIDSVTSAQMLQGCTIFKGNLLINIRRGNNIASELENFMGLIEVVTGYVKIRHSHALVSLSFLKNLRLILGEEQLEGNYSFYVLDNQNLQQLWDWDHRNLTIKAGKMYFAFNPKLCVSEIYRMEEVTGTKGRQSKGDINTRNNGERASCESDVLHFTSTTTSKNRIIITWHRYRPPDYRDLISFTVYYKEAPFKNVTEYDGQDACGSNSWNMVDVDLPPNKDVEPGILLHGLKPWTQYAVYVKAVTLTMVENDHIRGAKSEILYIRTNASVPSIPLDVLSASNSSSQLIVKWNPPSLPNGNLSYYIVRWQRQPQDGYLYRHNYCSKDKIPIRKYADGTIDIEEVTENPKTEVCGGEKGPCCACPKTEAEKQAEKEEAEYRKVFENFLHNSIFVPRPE
Sequence of Insulin-like growth factor 1 receptor (P08069 741-1367 limits assumed): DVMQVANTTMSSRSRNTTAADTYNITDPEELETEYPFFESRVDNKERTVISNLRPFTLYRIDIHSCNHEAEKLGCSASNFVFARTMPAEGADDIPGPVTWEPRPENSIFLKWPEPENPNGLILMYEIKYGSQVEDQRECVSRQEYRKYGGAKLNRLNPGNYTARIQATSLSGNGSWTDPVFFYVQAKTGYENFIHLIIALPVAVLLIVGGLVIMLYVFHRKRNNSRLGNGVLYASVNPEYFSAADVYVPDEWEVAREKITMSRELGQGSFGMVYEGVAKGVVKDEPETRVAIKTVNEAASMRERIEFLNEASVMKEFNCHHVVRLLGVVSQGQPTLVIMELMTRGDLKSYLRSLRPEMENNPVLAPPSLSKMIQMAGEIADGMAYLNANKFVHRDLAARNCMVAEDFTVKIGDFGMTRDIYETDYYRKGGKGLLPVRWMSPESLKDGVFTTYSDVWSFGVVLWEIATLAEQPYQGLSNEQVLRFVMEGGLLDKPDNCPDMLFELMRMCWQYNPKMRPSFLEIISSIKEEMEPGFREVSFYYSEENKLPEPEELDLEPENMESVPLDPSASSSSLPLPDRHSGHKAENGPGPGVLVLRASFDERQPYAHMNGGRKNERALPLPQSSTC

Turning to `O=[N+]([O-])c1ccc2oc3nccc(NCc4ccc(Br)cc4)c3c2c1`, the Ki was 0.81 µM in test [1] and 2.87 µM in test [2].
With `COc1cccc(CNc2ccnc3[nH]c4ccc(N)cc4c23)c1`, the Ki amounted to 0.32 µM in test [1] and 3.56 µM in test [2].
Take `Nc1ccc2oc3nccc(NCc4ccc(Cl)cc4)c3c2c1`: the IC50 in test [1] and in test [2] was > 1000 µM in each case.
As to `Nc1ccc2oc3nccc(NCc4ccc(Br)cc4)c3c2c1`, the IC50 in test [1] and in test [2] was > 1000 µM each time.
As to `Nc1cccc(CNc2ccnc3oc4ccc([N+](=O)[O-])cc4c23)c1`, the Ki is 3.59 µM in test [1] and 6.18 µM in test [2].
The corresponding values for `Nc1ccc2[nH]c3nccc(NCc4cccc(Br)c4)c3c2c1` are 0.11 µM and 2.1 µM.
As for `COc1ccc(CNc2ccnc3oc4ccc([N+](=O)[O-])cc4c23)cc1`, the values for the Ki in test [1] and in test [2] were 2.05 µM and 3.4 µM, respectively.
As for `O=[N+]([O-])c1cccc(CNc2ccnc3oc4ccc([N+](=O)[O-])cc4c23)c1`, the inhibition constant (Ki) in test [1] amounted to 0.93 µM; in test [2], 2.39 µM.
Take `Nc1ccc2oc3nccc(NCc4cccc(Br)c4)c3c2c1`: the Ki in test [1] came to 0.23 µM. Further, in test [2], the IC50 was > 1000 µM. Moreover, the inhibition of growth at 10 µM amounted to 29% in the test with BT-549, 16% in the test with Hs-578T, 18% in the test with HOP-62 and 23% in the test with NCI-H460.
As to `COc1ccc(CNc2ccnc3oc4ccc(N)cc4c23)cc1`, the IC50 in test [1] and in test [2] was > 1000 µM each time.
Consider `O=[N+]([O-])c1ccc2oc3nccc(NCc4cccc(Cl)c4)c3c2c1`, for which the Ki in test [1] was 1.36 µM; in test [2], 2.85 µM.
The like results for `Nc1cccc(CNc2ccnc3oc4ccc(N)cc4c23)c1` were, in that order, 0.94 µM and 8.93 µM.
As for `O=[N+]([O-])c1ccc2[nH]c3nccc(NCc4cccc(Cl)c4)c3c2c1`, the Ki in test [1] was determined as 0.08 µM; in test [2], 0.28 µM. Further, the inhibition of growth at 10 µM in the test with BT-549 came out at 30%; with Hs-578T it was 82%; in the test on HOP-62, 89%; in the test with NCI-H460, 73%.
For `COc1cccc(CNc2ccnc3[nH]c4ccc([N+](=O)[O-])cc4c23)c1`, the values for the Ki in test [1] and in test [2] were 0.33 µM and 0.89 µM, respectively.
The corresponding values for `O=[N+]([O-])c1ccc2oc3nccc(NCc4cccc(Br)c4)c3c2c1` are 0.68 µM and 2.61 µM.
Turning to `Nc1ccc2oc3nccc(NCc4cccc(Cl)c4)c3c2c1`, the Ki worked out at 0.4 µM in test [1] and 4.6 µM in test [2].
As to `COc1cccc(CNc2ccnc3oc4ccc([N+](=O)[O-])cc4c23)c1`, the Ki in test [1] is 2.74 µM; in test [2] it was 4.56 µM.
For the molecule `COc1ccc(CNc2ccnc3oc4ccccc4c23)cc1`, in test [2], the Ki is 1.03 µM.
Turning to `COc1cccc(CNc2ccnc3oc4ccc(N)cc4c23)c1`, the Ki was 0.17 µM in test [1] and 0.54 µM in test [2]. The inhibition of growth at 10 µM in the test with BT-549 amounted to 43%; in the test on Hs-578T it was 16%; in the test with HOP-62, 28%; with NCI-H460 it was 29%.
Take `O=[N+]([O-])c1ccc2oc3nccc(NCc4ccc(Cl)cc4)c3c2c1`: the Ki in test [1] was determined as 2.52 µM; in test [2] it was 3.54 µM.
As for `Nc1ccc2[nH]c3nccc(NCc4cccc(Cl)c4)c3c2c1`, the Ki in test [1] is 0.14 µM; in test [2], 1.92 µM.
Regarding `O=[N+]([O-])c1ccc2[nH]c3nccc(NCc4cccc(Br)c4)c3c2c1`, the Ki worked out at 0.11 µM in test [1] and 0.32 µM in test [2].
